Experiment [1] is described as follows: DPPH free radical scavenging activity. The settings on record: for EC50: isolated compounds (Table 5), read-out: SC50 DPPH. How it is done: DPPH analysis was performed according to the previously published procedure. A 400 μM DPPH radical solution was prepared in EtOH. The tested samples were dissolved in DMSO to prepare stock solutions, which were then diluted to the desired concentrations with EtOH. In a 96-well plate, 100 μL of each diluted tested sample solution was mixed with 100 μL of the DPPH radical solution (200 μM). The mixture was allowed to react in the dark at room temperature for 30 min. After the reaction, the absorbance at 520 nm was measured using an ELISA reader. DPPH radical scavenging activity was calculated by the following equation:(1) Scavenging rate (%)=(OD0−OD1)/OD0 where OD0 is absorbance of the control and OD 1 is that of the tested sample.

Experiment [2] in a line: Ferric reducing antioxidant power (FRAP). How it is done:
The analysis was performed using the published method. The working solution was prepared by mixing acetate buffer (pH 3.6), ferric chloride solution (20 mM), and TPTZ solution (10 mM TPTZ in 40 mM HCl) in a 10:1:1 ratio. Then, 900 µL of this solution was warmed to 37 °C and mixed with 100 µL of the diluted sample, blank, or standard in a microcentrifuge tube. The tubes were vortexed and incubated in a dry bath at 37 °C for 40 min. Absorbance was measured at 593 nm. The standard curve was linear from 0 to 100 mM Trolox, and results were expressed as mM TE/g dry weight.

Experiment [3] can be described thus: Superoxide radical scavenging activity (NBT/PMS/NADH). The note with it: for EC50: isolated compounds (Table 5), read-out: SC50 Superoxide. How it is done:
The superoxide scavenging activity assay was performed based on the published method. The superoxide radical was prepared in a 16 mM Tris-HCl buffer (pH 8.0) containing 50 µL of NBT (300 µM), 50 µL of PMS (120 µM), and 50 µL of different concentrations of the tested sample. The reaction was initiated by adding 50 µL of the NADH (468 µM) solution to the mixture and incubated at room temperature for 5 min. The activity of the samples was determined by calculating the decrease in absorbance measured at 560 nm by the following equation:(3) Scavenging rate (%)=(OD0−OD1)/OD0×100 where OD0 is absorbance of the control and OD1 is that of the tested sample.

A short description of experiment [4]: ABTS radical scavenging activity. The settings on record: for EC50: isolated compounds (Table 5), read-out: SC50 ABTS. How it is done: The analysis of ABTS was performed according to the previously published method. The ABTS solution (28 mM) was mixed with […] solution (9.6 mM) in a 1:1 ratio (v/v) and allowed to react in the dark at room temperature for 16 h to generate the ABTS radical solution. The ABTS radical solution was then diluted with EtOH until the absorbance at 740 nm reached 0.70 ± 0.02. The tested samples were dissolved in DMSO to prepare stock solutions, which were subsequently diluted to the desired concentrations with EtOH. In a 96-well plate, 190 μL of the diluted ABTS radical solution was mixed with 10 μL of each diluted sample solution. The mixture was allowed to react in the dark at room temperature for 6 min. The absorbance at 740 nm was then measured using an ELISA reader. The ABTS radical scavenging activity was calculated by the following equation:(2) Scavenging rate (%)=(OD0−OD1)/OD0×100 where OD0 is absorbance of the control and OD1 is that of the tested sample.

In experiment [5] the target is T1, α-glucosidase (Saccharomyces cerevisiae, UniProt P53341).
T1 construct: purchased Sigma-Aldrich
Kind of experiment: α-Glucosidase inhibitory activity (p-NPG substrate). The format is biochemical.

Experiment [6] has as its target T2, AChE (Electrophorus electricus, UniProt O42275).
T2 construct: purchased Sigma-Aldrich
Kind of experiment: biochemical. How it is done:
Determination of AChE inhibition was conducted based on the reported method with slight modifications. Sodium phosphate buffer (0.1 M, pH 8.0, 140 µL), test compound solution (20 µL), enzyme solution (15 µL of AChE at 0.2 units/mL), and DTNB (15 mM, 10 µL) were mixed and incubated for 10 min at room temperature. The reaction was then initiated by adding 10 µL of the substrate (AChI, 15 mM).

Setting [7] is: isolated compounds (Table 5), Trolox equivalents.
The mark [8] stands for this setting: solvent extracts, concentration for 50% free radical scavenging.

This note sets out measurements from paper PMC11761247, “Antioxidant, Anti-α-Glucosidase, Anti-Tyrosinase, and Anti-Acetylcholinesterase Components from Stem of Rhamnus formosana with Molecular Docking Study” (Antioxidants, 2024).

Molecules are shown by their SMILES. Where two headings read alike, the source gives them in different places.

T2 sequence (O42275 24-633): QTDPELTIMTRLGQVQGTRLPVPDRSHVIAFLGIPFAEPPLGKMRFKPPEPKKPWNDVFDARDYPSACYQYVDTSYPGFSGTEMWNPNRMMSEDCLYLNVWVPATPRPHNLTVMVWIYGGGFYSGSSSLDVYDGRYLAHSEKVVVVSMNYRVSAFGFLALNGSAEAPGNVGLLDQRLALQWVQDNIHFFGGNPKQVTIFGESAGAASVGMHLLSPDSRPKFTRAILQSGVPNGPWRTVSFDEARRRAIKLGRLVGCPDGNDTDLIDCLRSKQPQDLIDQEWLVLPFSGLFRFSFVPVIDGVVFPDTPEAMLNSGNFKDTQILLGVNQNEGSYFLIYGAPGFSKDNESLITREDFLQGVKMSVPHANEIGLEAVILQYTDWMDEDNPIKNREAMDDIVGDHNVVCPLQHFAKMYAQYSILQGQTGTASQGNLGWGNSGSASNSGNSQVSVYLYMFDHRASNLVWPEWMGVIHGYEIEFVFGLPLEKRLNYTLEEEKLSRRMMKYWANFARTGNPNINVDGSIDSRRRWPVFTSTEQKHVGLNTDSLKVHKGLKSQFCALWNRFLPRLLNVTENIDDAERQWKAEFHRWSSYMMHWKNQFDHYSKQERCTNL
T1 sequence (P53341 whole entry): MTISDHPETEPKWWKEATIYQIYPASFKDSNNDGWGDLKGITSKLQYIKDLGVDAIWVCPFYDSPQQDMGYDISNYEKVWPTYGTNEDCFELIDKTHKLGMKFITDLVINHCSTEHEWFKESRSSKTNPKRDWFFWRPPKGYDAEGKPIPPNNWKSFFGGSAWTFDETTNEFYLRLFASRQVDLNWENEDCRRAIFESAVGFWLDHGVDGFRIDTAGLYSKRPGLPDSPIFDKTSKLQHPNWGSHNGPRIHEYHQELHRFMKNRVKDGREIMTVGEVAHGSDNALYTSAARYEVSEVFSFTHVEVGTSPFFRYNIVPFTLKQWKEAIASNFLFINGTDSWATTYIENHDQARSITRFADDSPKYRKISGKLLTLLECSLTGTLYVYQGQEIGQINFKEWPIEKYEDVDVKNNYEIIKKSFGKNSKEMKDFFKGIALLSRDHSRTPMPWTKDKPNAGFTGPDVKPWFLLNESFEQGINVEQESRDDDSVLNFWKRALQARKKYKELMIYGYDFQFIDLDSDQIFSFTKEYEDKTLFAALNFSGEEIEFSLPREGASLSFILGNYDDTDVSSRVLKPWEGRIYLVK

For the molecule `O=c1c(O)c(-c2ccc(O)cc2)oc2cc(O)cc(O)c12` [Kaempferol (1), kaempferol], the EC50 in experiment [1] is 61.7 ± 7.36 µM; in experiment [3] it was 271 ± 20.7 µM; in experiment [4], 15.3 ± 0.94 µM. Moreover, the “TE FRAP” value in experiment [2] (setting [7]) was 1046.16 ± 23.78 mM/g; in experiment [2] (isolated compounds (Table 5), Trolox equivalents, listed as kaempferol (1)), 1046.16 ± 23.78 mM/g.

Take `Cc1cc(C(C)(C)C)c(O)c(C(C)(C)C)c1` [BHT, butylated hydroxytoluene, reference compound]: the EC50 was found to be 708 ± 10.8 µM in experiment [1] and 37.5 ± 4.31 µM in experiment [4]. The “SC50 DPPH” value in experiment [1] (setting [8]) stood at 156.04 ± 14.31 µg/mL. Moreover, the “TE FRAP” value in experiment [2] (setting [7]) turned out to be 5712.61 ± 176.27 mM/g; in experiment [2] (solvent extracts (Table 2), Trolox equivalents in mM per gram of extract), 3196.39 ± 115.26 mM/g. The “SC50 ABTS” value in experiment [4] (setting [8]) was 9.12 ± 1.85 µg/mL.

`Cc1cc(O)c2c(c1)C(=O)c1cc(O)cc(O)c1C2=O` [Emodin (3), emodin]: the EC50 in experiment [1] was greater than 200 µM; in experiment [3], 232 ± 15.9 µM; in experiment [4] it was greater than 200 µM. Besides, the IC50 amounted to 58.9 ± 3.39 µM in experiment [5] and 77.6 ± 6.28 µM in experiment [6]. Besides, the “TE FRAP” value in experiment [2] (setting [7]) is listed as less than 1 mM/g.

Take `COc1cc(O)c2c(c1)C(=O)c1cc(C)cc(O)c1C2=O` [Physcion (5), physcion]: the EC50 in experiment [1], in experiment [3] and in experiment [4] was greater than 200 µM in each case. Further, the half-inhibitory concentration (IC50) in experiment [5] is greater than 800 µM; in experiment [6] it was 76 ± 1.34 µM. Moreover, the “TE FRAP” value in experiment [2] (setting [7]) is given as less than 1 mM/g.

With `O=c1c(O)c(-c2ccc(O)c(O)c2)oc2cc(O)cc(O)c12` [Quercetin (2), quercetin], the EC50 amounted to 16.1 ± 2.62 µM in experiment [1], 85.8 ± 4.76 µM in experiment [3] and 5.7 ± 0.92 µM in experiment [4]. Moreover, the “TE FRAP” value amounted to 1026.73 ± 16.69 mM/g in experiment [2] (setting [7]) and 1026.73 ± 16.69 mM/g in experiment [2] (isolated compounds (Table 5), Trolox equivalents, listed as quercetin (2)).

Regarding `O=C(/C=C/c1ccc(O)c(O)c1)O[C@@H]1C[C@](O)(C(=O)O)C[C@@H](O)[C@H]1O` [Chlorogenic acid, chlorogenic acid, reference compound], the 50% inhibitory concentration (IC50) in experiment [6] (isolated compounds (Table 6), read-out: IC50 AChE (converted)) was 303 ± 25.2 µM; in experiment [6] (solvent extracts (Table 3), read-out: IC50 AChE (converted)) it was 496 µM.

With `Cc1cc(O)c2c(c1)C(=O)c1cccc(O)c1C2=O` [Chrysophanol (4), chrysophanol], the EC50 in experiment [1], in experiment [3] and in experiment [4] was greater than 200 µM in each case. The half-maximal inhibitory concentration (IC50) in experiment [5] is 604 ± 44.8 µM; in experiment [6], greater than 400 µM. For the same molecule, the “TE FRAP” value in experiment [2] (setting [7]) is given as less than 1 mM/g.

Turning to `O=c1cc(-c2ccc(O)c(O)c2)oc2cc(O[C@@H]3O[C@H](CO)[C@@H](O)[C@H](O)[C@H]3O)cc(O)c12` [Cynaroside, reference compound], in experiment [3], the EC50 was 20 ± 1.7 µM. For the same molecule, the “SC50 Superoxide” value in experiment [3] (setting [8]) was found to be 12.03 ± 4.20 µg/mL.
